Data: article PMC10146558, “Highly Cytotoxic Copper(II) Mixed-Ligand Quinolinonato Complexes: Pharmacokinetic Properties and Interactions with Drug Metabolizing Cytochromes P450” (Pharmaceutics, 2023)

Experiments:
[1] = Parallel artificial membrane permeability assay (PAMPA); format: in vitro ADME; details: category according to log Papp
Method: Pharmacological properties of the complexes 1 and 2, including stability in plasma, microsomal stability, binding to plasma proteins, and permeability through an artificial membrane, were tested under in vitro conditions and according to methods described in previous reports. Analysis of the samples was performed using Agilent RapidFire 300 High-Throughput Mass Spectrometry System (Agilent Technologies, Wakefield, MA, USA) with subsequent detection using the mass spectrometer Qtrap 5500 (AB Sciex, Concord, Toronto, ON, Canada), abbreviation RF-MS. […]
PAMPA was performed with the Millipore MultiScreen filter MultiScreen-IP Durapore 0.45-μm plates and receiver plates (Merck Millipore, Burlington, MA, USA). […] The permeation of compounds across a filter membrane (activation by 10% lecithin in dodecane) was quantified by RF/MS after 18 h incubation at room temperature. The apparent permeability, logPe, was calculated from the following equation: logPe = log{C× − ln(1 − drugA/drugE)}; C = (VA × VD)/{(VD + VA) × A × T}, where VD and VA are the volumes of the donor and acceptor compartments, respectively; A is the active surface area of the membrane; T is the time of the incubation in seconds; and drugA or drugE represents the concentration of the tested compounds in the acceptor compartment and in the solution in theoretical equilibrium.

CYP2C9 = molecular target: T1, CYP2C9 (Homo sapiens, UniProt P11712); assay: CYP2C9 activity (diclofenac 4′-hydroxylation) in human liver microsomes; format: biochemical; details: for Type of inhibition, CYP2C9 / Ki: Dixon and Lineweaver–Burk plots; for Ki: substrate ½ Km to 4 Km; for IC50: human liver microsomes, diclofenac 4′-hydroxylation
T1 construct: Cryopreserved pooled human liver microsomes were obtained from Xenotech; tissue Xenotech (Lenexa, KS, USA); host or cells: pooled human liver microsomes
T1 sequence (P11712 whole entry): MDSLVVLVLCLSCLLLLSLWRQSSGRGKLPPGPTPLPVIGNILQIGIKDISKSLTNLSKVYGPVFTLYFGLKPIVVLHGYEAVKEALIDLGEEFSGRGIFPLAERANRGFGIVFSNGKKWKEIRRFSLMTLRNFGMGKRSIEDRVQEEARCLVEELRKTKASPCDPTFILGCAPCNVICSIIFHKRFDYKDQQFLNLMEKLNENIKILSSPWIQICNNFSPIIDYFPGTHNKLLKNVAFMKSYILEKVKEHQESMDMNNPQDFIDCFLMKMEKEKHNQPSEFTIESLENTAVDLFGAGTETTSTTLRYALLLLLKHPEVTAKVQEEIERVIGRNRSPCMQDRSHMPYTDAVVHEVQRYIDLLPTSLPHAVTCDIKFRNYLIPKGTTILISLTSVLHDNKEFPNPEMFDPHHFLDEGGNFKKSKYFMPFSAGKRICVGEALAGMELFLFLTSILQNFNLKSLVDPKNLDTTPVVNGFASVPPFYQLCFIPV
Method: (§2) For each enzyme assay, the preliminary experiments to determine Michaelis constant (Km) and limiting velocity (Vmax) were performed to calculate the time of incubation (the specified time for which the reaction is still linear) and the values of substrate concentration (in the range corresponding to the value of Km).
(§3) The reaction mixtures were buffered by 0.1 M potassium phosphate buffer (pH 7.4) and contained a NADPH-generating system consisting of the isocitrate dehydrogenase (6 U/mL), NADP^+ (0.5 mM), isocitric acid (4 mM), and MgSO4 (5 mM). The final concentration levels of complexes were obtained by diluting a 10 mM solution with dimethyl sulfoxide (DMSO). It is known that DMSO can in some cases inhibit P450; the following measures were thus applied: (a) control samples containing organic solvent without the tested compounds were prepared and used as references; (b) DMSO levels were maintained below 0.1% to minimise the inhibition. Inhibition experiments were performed using five concentration levels of the tested compounds in the range of 10–100 µM. The maximum concentration was chosen so that in the case of inhibition, it would be possible to determine the inhibitory effect of the complexes and characterise them by determining the IC50 value. Additionally, an inhibitor-free control was used as a reference. Incubations were executed in two independent batches, and the samples were prepared and measured in triplicate at 37 °C. Analyses of the metabolites formed from the specific substrates were performed by HPLC using the Prominence system (Shimadzu, Kyoto, Japan) equipped with a LiChroCART 250-4 LiChrospher 100 RP-18 column, Chromolith® HighResolution RP-18 end-capped column (Merck, Darmstadt, Germany), or Kinetex Biphenyl column (Phenomenex, Torrace, CA, USA).
(§4) The apparent Ki values were determined by additional measurements using substrate concentrations corresponding to 1/2 Km, Km, 2 Km, and 4 Km in the case of inhibition. The type of model was selected on the basis of the Lineweaver–Burk and Dixon plots. The values of IC50 were obtained by analysing the plot of the percentage of activity remaining after inhibition versus the logarithm of the inhibitor concentration using the GraphPad Prism 6 software (La Jolla, CA, USA).

CYP2C19 = molecular target: T2, CYP2C19 (Homo sapiens, UniProt P33261); assay: CYP2C19 activity ((S)-mephenytoin 4′-hydroxylation) in human liver microsomes; format: biochemical; details: for Type of inhibition, CYP2C19 / Ki: Dixon and Lineweaver–Burk plots; for Ki: substrate ½ Km to 4 Km; for IC50: human liver microsomes, (S)-mephenytoin 4′-hydroxylation
T2 construct: Cryopreserved pooled human liver microsomes were obtained from Xenotech; tissue Xenotech (Lenexa, KS, USA); host or cells: pooled human liver microsomes
T2 sequence (P33261 whole entry): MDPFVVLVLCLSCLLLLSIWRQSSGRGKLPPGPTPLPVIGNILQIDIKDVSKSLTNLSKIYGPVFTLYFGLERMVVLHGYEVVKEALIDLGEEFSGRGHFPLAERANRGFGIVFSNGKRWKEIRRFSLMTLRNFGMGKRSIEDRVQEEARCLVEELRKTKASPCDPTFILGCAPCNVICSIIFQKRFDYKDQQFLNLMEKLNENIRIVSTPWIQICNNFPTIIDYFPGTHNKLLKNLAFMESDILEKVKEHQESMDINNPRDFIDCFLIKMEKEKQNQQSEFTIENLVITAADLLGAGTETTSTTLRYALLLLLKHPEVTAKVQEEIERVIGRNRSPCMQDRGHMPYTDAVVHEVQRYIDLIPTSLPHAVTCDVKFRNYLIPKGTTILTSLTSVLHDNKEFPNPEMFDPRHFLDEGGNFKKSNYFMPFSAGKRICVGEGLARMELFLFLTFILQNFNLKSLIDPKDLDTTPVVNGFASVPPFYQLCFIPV
Method: as §2, §3, §4

human bactosomes CYP1A2 = molecular target: T3, human bactosomes CYP1A2 (Homo sapiens, UniProt P05177); assay: Isothermal titration calorimetry, bactosomes CYP1A2; format: binding; details: 25 °C, 100 mM phosphate buffer pH 7.4, 1% DMSO
T3 construct: purchased BD Biosciences (Franklin Lakes, NJ, USA); host or cells: bacterial membranes ('bactosomes')
T3 sequence (P05177 1-516): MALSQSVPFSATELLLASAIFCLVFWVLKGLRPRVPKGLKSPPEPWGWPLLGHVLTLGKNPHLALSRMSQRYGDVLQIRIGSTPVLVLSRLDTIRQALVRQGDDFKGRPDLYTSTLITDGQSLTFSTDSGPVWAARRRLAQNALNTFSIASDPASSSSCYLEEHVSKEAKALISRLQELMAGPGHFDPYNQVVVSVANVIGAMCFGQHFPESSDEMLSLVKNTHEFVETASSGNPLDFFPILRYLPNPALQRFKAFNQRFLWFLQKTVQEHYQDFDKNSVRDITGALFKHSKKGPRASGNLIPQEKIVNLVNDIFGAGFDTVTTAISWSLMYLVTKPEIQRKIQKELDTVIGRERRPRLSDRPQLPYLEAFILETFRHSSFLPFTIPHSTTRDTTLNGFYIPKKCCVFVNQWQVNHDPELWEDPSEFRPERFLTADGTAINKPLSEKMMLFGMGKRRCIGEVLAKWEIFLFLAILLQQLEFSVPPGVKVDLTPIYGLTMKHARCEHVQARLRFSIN
Method: (§1) The interactions of the compounds with selected forms of cytochrome P450, i.e., human bactosomes CYP1A2, CYP2A6, CYP3A4, and recombinant human CYP3A4, were studied using isothermal titration calorimetry (ITC). ITC experiments were performed at 25 °C with a Nano ITC Low Volume (TA Instruments, New Castle, DE, USA). During all measurements, 20 injections of 16µM of the studied compound (2.5 µL each) were titrated into 250 µL of protein (2 µM) with time intervals of 300 s and a stirring speed of 250 rpm. All ITC experiments were conducted with degassed buffered solutions (100 mM phosphate buffer, pH 7.4) in the presence of 1% DMSO. Control experiments included the titration of each complex solution into a buffer. The corrected data refer to experimental data after subtraction of the buffer control data from the compounds data. The resulting thermograms were analysed using the “Independent” model within the NanoAnalyze software (TA Instruments, New Castle, DE, USA).

human bactosomes CYP2A6 = molecular target: T4, human bactosomes CYP2A6 (Homo sapiens, UniProt P11509); assay: Isothermal titration calorimetry, bactosomes CYP2A6; format: binding; details: 25 °C; for n, CYP2A6B: ITC stoichiometry, pH 7.4; for Ka, CYP2A6B / ΔG, CYP2A6B / ΔH, CYP2A6B / ΔS, CYP2A6B / Kd: ITC, pH 7.4, 1% DMSO; for Kd: read-out: Kd, CYP2A6B
T4 construct: purchased BD Biosciences (Franklin Lakes, NJ, USA); host or cells: bacterial membranes ('bactosomes')
T4 sequence (P11509 1-494): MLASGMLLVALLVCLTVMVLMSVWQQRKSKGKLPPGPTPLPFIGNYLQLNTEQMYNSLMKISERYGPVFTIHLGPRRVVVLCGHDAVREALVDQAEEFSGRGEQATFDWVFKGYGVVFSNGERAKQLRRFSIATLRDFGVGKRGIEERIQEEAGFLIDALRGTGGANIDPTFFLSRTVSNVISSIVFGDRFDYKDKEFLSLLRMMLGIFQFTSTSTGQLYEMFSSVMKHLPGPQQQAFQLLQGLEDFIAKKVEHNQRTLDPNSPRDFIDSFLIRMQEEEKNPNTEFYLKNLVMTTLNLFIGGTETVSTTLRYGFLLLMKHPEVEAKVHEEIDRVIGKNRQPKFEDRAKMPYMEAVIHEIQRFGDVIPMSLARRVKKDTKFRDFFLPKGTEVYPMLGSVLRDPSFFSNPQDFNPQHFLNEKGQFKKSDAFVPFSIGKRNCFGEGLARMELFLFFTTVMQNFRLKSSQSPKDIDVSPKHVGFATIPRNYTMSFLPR
Method: as §1

CYP3A4/5 = CYP3A4/5 activity (testosterone 6β-hydroxylation) in human liver microsomes; details: for Type of inhibition, CYP3A4/5 (testosterone 6β-hydroxylation) / Ki: Dixon and Lineweaver–Burk plots; for IC50: read-out: IC50 CYP3A4/5 (testosterone 6β-hydroxylation assay), human liver microsomes; for Ki: read-out: Ki CYP3A4/5 (testosterone 6β-hydroxylation assay), substrate ½ Km to 4 Km
Method: For each enzyme assay, the preliminary experiments to determine Michaelis constant (Km) and limiting velocity (Vmax) were performed to calculate the time of incubation (the specified time for which the reaction is still linear) and the values of substrate concentration (in the range corresponding to the value of Km). The amount of human liver microsomes (HLM; expressed as the amount of CYP in pmol and the concentration of HLM protein in mg/mL in the reaction vessel) in the reaction was determined using previously established protocols [40].
The reaction mixtures were buffered by 0.1 M potassium phosphate buffer (pH 7.4) and contained a NADPH-generating system consisting of the isocitrate dehydrogenase (6 U/mL), NADP^+ (0.5 mM), isocitric acid (4 mM), and MgSO4 (5 mM). The final concentration levels of complexes were obtained by diluting a 10 mM solution with dimethyl sulfoxide (DMSO). It is known that DMSO can in some cases inhibit P450; the following measures were thus applied: (a) control samples containing organic solvent without the tested compounds were prepared and used as references; (b) DMSO levels were maintained below 0.1% to minimise the inhibition. Inhibition experiments were performed using five concentration levels of the tested compounds in the range of 10–100 µM. The maximum concentration was chosen so that in the case of inhibition, it would be possible to determine the inhibitory effect of the complexes and characterise them by determining the IC50 value. Additionally, an inhibitor-free control was used as a reference. Incubations were executed in two independent batches, and the samples were prepared and measured in triplicate at 37 °C.
The type of model was selected on the basis of the Lineweaver–Burk and Dixon plots. The values of IC50 were obtained by analysing the plot of the percentage of activity remaining after inhibition versus the logarithm of the inhibitor concentration using the GraphPad Prism 6 software (La Jolla, CA, USA).

SMILES	PAMPA Category [1]	Type of inhibition, CYP2C9 (CYP2C9)	Ki (CYP2C9) [µM]	IC50 (CYP2C9) [µM]	Type of inhibition, CYP2C19 (CYP2C19)	Ki (CYP2C19) [µM]	IC50 (CYP2C19) [µM]	ITC interaction with CYP1A2B (human bactosomes CYP1A2)	n, CYP2A6B (human bactosomes CYP2A6)	Ka, CYP2A6B (human bactosomes CYP2A6) [M⁻¹]	ΔG, CYP2A6B (human bactosomes CYP2A6)	ΔH, CYP2A6B (human bactosomes CYP2A6) [kcal/mol]	ΔS, CYP2A6B (human bactosomes CYP2A6) [J/mol.K]	Kd (human bactosomes CYP2A6) [µM]	Type of inhibition, CYP3A4/5 (testosterone 6β-hydroxylation) (CYP3A4/5)	IC50 (CYP3A4/5) [µM]	Ki (CYP3A4/5) [µM]	CYP2C9 activity remaining, % of the control (CYP2C9; at 100 μM) [%]	CYP2C19 activity remaining, % of the basal activity (CYP2C19; at 100 μM) [%]	CYP3A4/5 activity remaining (testosterone 6β-hydroxylation), % of basal activity (CYP3A4/5; at 100 μM) [%]
Cc1cc2cccnc2c2ncccc12.O.O=[N+]([O-])[O-].O=c1c([O-])c(-c2ccccc2)[nH]c2ccccc12.[Cu+2] [complex 1]	Low (those with log Papp < −5 were considered poorly permeable)	non-competitive	2.56 ± 0.37	16.3	non-competitive	4.15 ± 0.71	61.2	no interaction	0.801	1.04e+06	−40,050.9 J/mol	-7.603	27.64	0.962	non-competitive	2.46	3.6 ± 0.67	–	–	–
Cc1cc2cccnc2c2ncccc12.F[B-](F)(F)F.O.O=c1c([O-])c(-c2ccccc2)[nH]c2ccccc12.[Cu+2] [complex 2]	Low (those with log Papp < −5 were considered poorly permeable)	fully non-competitive	0.92 ± 0.25	37.2	fully non-competitive	9.14 ± 0.8	77.1	no interaction	1.071	3.12e+06	−37,070.9 J/mol	-5.507	47.06	0.321	fully non-competitive	4.88	3.94 ± 0.6	7	36	1
